This is an account of results in paper PMC10140166 (The Journal of Biological Chemistry, 2023).

Several values for one entry are separate records, joined by “and”; a condition that tells them apart may be missing. Equal values may be shown once. A value given as a limit tells only on which side of the number the result lay.

Data set [1] has as its system HSV-1. Particulars: read-out: IC50 against HSV-1; cited from earlier work.
Data set [2] relates to PRV. Kind of data set: microbe, parasite or virus in culture. Type of data set: cell-based, pseudorabies virus. As to conditions: for IC50: Suid alphaherpesvirus 1, HeLa, 24 h.
Data set [3] concerns DF-1 cells.
Data set [4] has as its system HCMV. Particulars: read-out: IC50 against HCMV; cited from earlier work.
Data set [5] relates to HSV-2. As to conditions: read-out: IC50 against HSV-2; cited from earlier work.
Data set [6] relates to enterovirus 71. As to conditions: read-out: IC50 against enterovirus 71; cited from earlier work.
The nature of data set [7]: in vitro. As to conditions: human.
The test system of data set [8] is PRV. The format is cell-based, pseudorabies virus.

As to `Oc1cccc2c1[nH]c1c(C3=C[C@@]4(O)CC/C=C\CCCCN5CC[C@@H]3[C@]3(C[C@@H]6/C=C\CCCCN6[C@H]34)C5)nccc12` [8-hydroxymanzamine A], the IC50 in data set [1] is 3700 nM.

For the compound `COc1cc(N2CCN(C)CC2)ccc1Nc1nccc(-c2cn(C)c3cnccc23)n1` [AZ191], in data set [2], the “reduction of production of infectious virus particles vs DMSO” value turned out to be 1.1 Log. Further, the “cytotoxicity / cell viability at the concentration used” value (“cytotoxicity / cell viability” for short) in data set [3] is “did not affect cell viability”.

With `Nc1nc2c(ncn2COCCO)c(=O)[nH]1` [Acyclovir], in data set [2], the “reduction (positive control), primary screening” value is 98% and the IC50 is 2810 ± 300 nM.

Take `COc1ccc2c(c1)[nH]c1c(C)nccc12` [Compound 2, harmine]: the half-maximal inhibitory concentration (IC50) in data set [4] was 710 ± 19 nM; in data set [2], 1190 ± 90 nM; in data set [5], 1470 nM; in data set [6], 10000 ± 2500 nM; in data set [1], 4560 nM. In addition, in data set [2], the “inhibitory rate (reduction vs DMSO-treated cells), primary screening” value is over 90%. Besides, the “reduction of production of infectious virus particles vs DMSO” value in data set [2] is given as 2.3 Log. This compound came in with a CC50 in data set [7] of over 30000 nM. Moreover, in data set [3], the “cytotoxicity / cell viability” value is on record as “without cytotoxicity”.

Consider `COc1ccc2c3ccnc(C)c3n(C)c2c1` [Compound 3, 9-methyl-harmine], for which, in data set [2], the “inhibitory rate (reduction vs DMSO-treated cells), primary screening” value is > 90% and > 99%; 520 ± 40 nM corresponded to half-maximal inhibition (IC50). Also, in data set [7], the CC50 is over 30000 nM.

Consider `CCn1c2ccccc2c2cc(Nc3ccnc(NCCCN4CCOCC4)n3)ccc21` [EHop-016], for which the “viral protein load (Western blot)” value in data set [8] was “reduced the viral protein load”. The “cytotoxicity / cell viability” value in data set [3] is reported as “without cytotoxicity”.

On to `CCN(c1nc(N)c(C(=O)N=C(N)N)nc1Cl)C(C)C` [EIPA, 5-[N-ethyl-N-isopropyl] amiloride], for which, in data set [8], the “viral protein load (US9 relative to β-actin, densitometry)” value worked out at 0.21 ± 0.01. Besides, in data set [3], the “cytotoxicity / cell viability” value is “without cytotoxicity”.

Take ML-141: the “viral protein load (Western blot)” value in data set [8] is “reduced the viral protein load”. For the same compound, the “cytotoxicity / cell viability” value in data set [3] was “without cytotoxicity”.

For Mazamine A, the concentration for half-maximal inhibition (IC50) in data set [1] was 1000 nM.

Consider manzamine A monohydrochloride, for which, in data set [1], the IC50 is 100 nM.

With manzamine A monotartrate, the half-inhibitory concentration (IC50) in data set [1] was 100 nM.

In general, IC50 refers to the point on the concentration scale where inhibition reaches its midpoint.
